# Source: PubChem BioAssay AID256 (DTP/NCI, 2004)
# Toxic doses and inconclusive results are not listed.
# System: CD2F1 mice, L1210 leukemia ip, survival T/C
# Experiment: NCI In Vivo Anticancer Drug Screen. Data for tumor model L1210 Leukemia (intraperitoneal) in CD2F1 (CDF1) mice
# Details: endpoint: mean survival time, higher = longer survival
# Method in brief: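 Mice carrying a transplanted tumor received test compound or vehicle alone. The value is the measurement in the treated group divided by that in the vehicle-treated control group.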
# [1] = dose: 100.0 mg/kg/injection, schedule: Q01DX009 (ip), vehicle: saline with Tween-80
# [2] = dose: 200.0 mg/kg/injection, schedule: Q01DX009 (ip), vehicle: saline with Tween-80
# [3] = dose: 400.0 mg/kg/injection, schedule: Q01DX009 (ip), vehicle: saline with Tween-80
# [4] = dose: 100.0 mg/kg/injection, schedule: Q01DX001 (ip), vehicle: saline with Tween-80
structure (smiles),measurement,setting,value
O=C1CCC(=O)ON=c2ccc(cc2)=NO1,T/C,"dose: 50.0 mg/kg/injection, schedule: Q01DX009 (ip), vehicle: saline",98 % of control
same,T/C,"dose: 100.0 mg/kg/injection, schedule: Q01DX009 (ip), vehicle: saline",102 % of control
same,T/C,"dose: 200.0 mg/kg/injection, schedule: Q01DX009 (ip), vehicle: saline",90 % of control
CCCCOC(=O)CC(=O)OCCCC,T/C,[1],102 % of control
same,T/C,"dose: 100.0 mg/kg/injection, schedule: Q04DX003 (ip), vehicle: saline with Tween-80",101 % of control
same,T/C,[2],104 % of control
same,T/C,"dose: 200.0 mg/kg/injection, schedule: Q04DX003 (ip), vehicle: saline with Tween-80",93 % of control
same,T/C,[3],96 % of control
same,T/C,"dose: 400.0 mg/kg/injection, schedule: Q04DX003 (ip), vehicle: saline with Tween-80",93 % of control
CC(=O)Nc1ccc(SCCCc2c(N)nc(N)nc2N)cc1,T/C,[4],100 % of control
same,T/C,"dose: 200.0 mg/kg/injection, schedule: Q01DX001 (ip), vehicle: saline with Tween-80",100 % of control
CC(=O)Nc1ccn(C2OC(CO)C(O)C2O)c(=O)n1 (centres undefined),T/C,"dose: 12.5 mg/kg/injection, schedule: Q03HX024 (ip), vehicle: saline",196 % of control
same,T/C,"dose: 25.0 mg/kg/injection, schedule: Q03HX024 (ip), vehicle: saline",274 % of control
same,T/C,"dose: 37.5 mg/kg/injection, schedule: Q01DX008 (ip), vehicle: saline",150 % of control
same,T/C,"dose: 50.0 mg/kg/injection, schedule: Q03HX024 (ip), vehicle: saline",257 % of control
same,T/C,"dose: 50.0 mg/kg/injection, schedule: Q04DX003 (ip), vehicle: saline",113 % of control
same,T/C,"dose: 75.0 mg/kg/injection, schedule: Q01DX008 (ip), vehicle: saline",160 % of control
same,T/C,"dose: 100.0 mg/kg/injection, schedule: Q04DX003 (ip), vehicle: saline",117 % of control
same,T/C,"dose: 150.0 mg/kg/injection, schedule: Q01DX001 (ip), vehicle: saline",106 % of control
same,T/C,"dose: 150.0 mg/kg/injection, schedule: Q01DX008 (ip), vehicle: saline",174 % of control
same,T/C,"dose: 300.0 mg/kg/injection, schedule: Q01DX001 (ip), vehicle: saline",107 % of control
same,T/C,"dose: 600.0 mg/kg/injection, schedule: Q01DX001 (ip), vehicle: saline",107 % of control
same,T/C,"dose: 1200.0 mg/kg/injection, schedule: Q01DX001 (ip), vehicle: saline",104 % of control
C=CCSc1nc(N)nc2nc[nH]c12,T/C,"dose: 100.0 mg/kg/injection, schedule: Q04DX003 (ip), vehicle: saline sonified",107 % of control
same,T/C,"dose: 200.0 mg/kg/injection, schedule: Q04DX003 (ip), vehicle: saline sonified",96 % of control
C[Si](C)(C)OSc1ccccc1[N+](=O)[O-],T/C,"dose: 12.5 mg/kg/injection, schedule: Q01DX009 (ip), vehicle: Klucel (hydroxypropylcellulose) (HPC)",95 % of control
same,T/C,"dose: 25.0 mg/kg/injection, schedule: Q01DX009 (ip), vehicle: Klucel (hydroxypropylcellulose) (HPC)",97 % of control
same,T/C,"dose: 50.0 mg/kg/injection, schedule: Q01DX009 (ip), vehicle: Klucel (hydroxypropylcellulose) (HPC)",100 % of control
same,T/C,"dose: 100.0 mg/kg/injection, schedule: Q01DX009 (ip), vehicle: Klucel (hydroxypropylcellulose) (HPC)",93 % of control
same,T/C,"dose: 200.0 mg/kg/injection, schedule: Q01DX009 (ip), vehicle: Klucel (hydroxypropylcellulose) (HPC)",92 % of control
same,T/C,"dose: 400.0 mg/kg/injection, schedule: Q01DX009 (ip), vehicle: Klucel (hydroxypropylcellulose) (HPC)",91 % of control
O=C(NC1CCC(CC2CCCCC2)CC1)c1ccccc1 (centres undefined),T/C,[1],100 % of control
same,T/C,[2],93 % of control
same,T/C,[3],114 % of control
c1nc(SSc2ncnc3nc[nH]c23)c2[nH]cnc2n1,T/C,"dose: 12.5 mg/kg/injection, schedule: Q01DX009 (ip), vehicle: saline with Tween-80",186 % of control
same,T/C,"dose: 25.0 mg/kg/injection, schedule: Q01DX009 (ip), vehicle: saline with Tween-80",151 % of control
same,T/C,"dose: 30.0 mg/kg/injection, schedule: Q01DX001 (ip), vehicle: saline with Tween-80",150 % of control
same,T/C,"dose: 66.0 mg/kg/injection, schedule: Q01DX001 (ip), vehicle: saline with Tween-80",157 % of control
same,T/C,[4],155 % of control
same,T/C,"dose: 150.0 mg/kg/injection, schedule: Q01DX001 (ip), vehicle: saline with Tween-80",162 % of control
CCN(C)c1cc2c3c(c1)CCCN3CCC2,T/C,"dose: 1.25 mg/kg/injection, schedule: Q01DX009 (ip), vehicle: saline",103 % of control
same,T/C,"dose: 2.5 mg/kg/injection, schedule: Q01DX009 (ip), vehicle: saline",104 % of control
same,T/C,"dose: 5.0 mg/kg/injection, schedule: Q01DX001 (ip), vehicle: saline",100 % of control
same,T/C,"dose: 5.0 mg/kg/injection, schedule: Q01DX009 (ip), vehicle: saline",98 % of control
same,T/C,"dose: 10.0 mg/kg/injection, schedule: Q01DX001 (ip), vehicle: saline",101 % of control
same,T/C,"dose: 20.0 mg/kg/injection, schedule: Q01DX001 (ip), vehicle: saline",102 % of control
CCOC(=O)/C(Br)=C/SCCN,T/C,"dose: 100.0 mg/kg/injection, schedule: Q01DX001 (ip), vehicle: saline",111 % of control
same,T/C,"dose: 200.0 mg/kg/injection, schedule: Q01DX001 (ip), vehicle: saline",105 % of control
same,T/C,"dose: 400.0 mg/kg/injection, schedule: Q01DX001 (ip), vehicle: saline",100 % of control
